In ChEMBL document CHEMBL6096636 (Bioorg Med Chem, 2024) one finds IC50 and selectivity ratio data, which are given here for 30 compounds.

Series [1] relates to Plasmodium falciparum. Nature of the series: microbe, parasite or virus in culture. The conditions noted are these: Dd2, 72 h.
Description: Antimalarial activity against erythrocytic stage of chloroquine-resistant Plasmodium falciparum Dd2 assessed as inhibition of growth incubated for 72 hrs by SYBR green I based assay
Series [2] is described as follows: Cytotoxicity against HEK293T cells assessed as inhibition of cell growth incubated for 72 hrs by CCK8 assay. Format: toxicity, cell-based, HEK-293T. The conditions noted are these: human. On the technique in general: Formazan colour is commonly taken as a measure of viable cells.
Series [3] in a line: Selectivity index, ratio of IC50 for HEK293T cells to IC50 for erythrocytic stage of Plasmodium falciparum 3D7. Format: toxicity, cell-based. The conditions noted are these: human, read-out: Ratio IC50.
The subject of series [4] is Plasmodium falciparum. In words: microbe, parasite or virus in culture. The conditions noted are these: 3D7, 72 h.
Description: Antimalarial activity against erythrocytic stage of Plasmodium falciparum 3D7 assessed as inhibition of growth incubated for 72 hrs by SYBR green I based assay
A short description of series [5]: Selectivity index, ratio of IC50 for human HepG2 cells to IC50 for erythrocytic stage of Plasmodium falciparum 3D7. Format: toxicity, cell-based. The conditions noted are these: read-out: Ratio IC50.
Series [6] can be described thus: Cytotoxicity against human HepG2 cells assessed as inhibition of cell growth incubated for 72 hrs by CCK8 assay. The format is toxicity, cell-based.

A value given as a limit tells only on which side of the number the result lay.

By IC50 is commonly meant the concentration that inhibits the measured activity by half. For `Cn1c(CN[C@H]2CC[C@@H](Nc3ncc(C(=O)NO)cn3)CC2)nc2ccccc21`, the IC50 was 26.4 nM in series [1] and 19.6 nM in series [4]. Also, the IC50 at 72 h in series [2] and in series [6] was over 10000 nM each time. Further, the selectivity ratio in series [3] and in series [5] was over 510 in each case.

As for `O=C(NO)c1cnc(N[C@H]2CC[C@@H](NCc3ccc(-c4ccccc4)cc3)CC2)nc1`, the IC50 is 179 nM in series [1] and 92.1 nM in series [4]. The IC50 at 72 h in series [2] was found to be 2180 nM; in series [6], 2000 nM. The selectivity ratio in series [3] amounted to 24; in series [5] it was 22.

Take `O=C(NO)c1cnc(N[C@H]2CC[C@@H](NCc3c4ccccc4cc4ccccc34)CC2)nc1`: the IC50 in series [1] turned out to be 7.5 nM; in series [4] it was 9 nM. Moreover, the IC50 at 72 h stood at 1030 nM in series [2] and 858 nM in series [6]. For the same compound, the results for the selectivity ratio in series [3] and in series [5] were 114 and 95, respectively.

Consider `O=C(NO)c1cnc(N[C@H]2CC[C@@H](NCc3cccc4cccnc34)CC2)nc1`, for which the IC50 in series [1] turned out to be 53.6 nM; in series [4], 65.6 nM. Besides, the IC50 at 72 h in series [2] and in series [6] was over 10000 nM throughout. The selectivity ratio in series [3] and in series [5] was over 152 in each case.

As for `Cn1cc(CN[C@H]2CC[C@@H](Nc3ncc(C(=O)NO)cn3)CC2)c2ccc(F)cc21`, the IC50 in series [1] turned out to be 14.5 nM; in series [4] it was 12 nM. In addition, the IC50 at 72 h in series [2] was determined as 6000 nM; in series [6], 3190 nM. The selectivity ratio in series [3] was 501; in series [5] it was 267.

For the compound `Cn1cc(CN[C@H]2CC[C@@H](Nc3ncc(C(=O)NO)cn3)CC2)c2ccccc21`, the IC50 came out at 11.9 nM in series [1] and 10.8 nM in series [4]. Besides, the IC50 at 72 h in series [2] turned out to be 4310 nM; in series [6], 1770 nM. In addition, the figures for the selectivity ratio in series [3] and in series [5] were 399 and 163, respectively.

On to `O=C(NO)c1cnc(N[C@H]2CC[C@@H](NCc3cccc4ccncc34)CC2)nc1`, for which the IC50 in series [1] amounted to 62.1 nM; in series [4], 43.4 nM. The IC50 at 72 h in series [2] and in series [6] was 7080 nM each time. Further, the selectivity ratio in series [3] and in series [5] was 163 each time.

For `O=C(NO)c1cnc(N[C@H]2CC[C@@H](NCc3ccc4ccccc4c3)CC2)nc1`, the IC50 in series [1] and in series [4] was 15.4 nM throughout. Moreover, the IC50 at 72 h in series [2] came to 1790 nM; in series [6], 1130 nM. For the same compound, the figures for the selectivity ratio in series [3] and in series [5] were 116 and 73, respectively.

Consider `O=C(NO)c1cnc(N[C@H]2CC[C@@H](NCc3cc4ccccc4c4ccccc34)CC2)nc1`, for which the IC50 in series [1] was found to be 12.3 nM; in series [4], 10.7 nM. The concentration for half-maximal inhibition (IC50) at 72 h in series [2] was 2010 nM; in series [6], 1290 nM. Besides, the selectivity ratio in series [3] was found to be 187; in series [5], 120.

As to `Cn1cc(CN[C@H]2CC[C@@H](Nc3ncc(C(=O)NO)cn3)CC2)c2ccncc21`, the figures for the IC50 in series [1] and in series [4] were 49.4 nM and 52.1 nM, respectively. In addition, the IC50 at 72 h in series [2] and in series [6] was over 10000 nM in each case. Moreover, the selectivity ratio in series [3] and in series [5] was over 192 in each case.

As to `O=C(NO)c1cnc(N[C@H]2CC[C@@H](NCc3csc4ccccc34)CC2)nc1`, the IC50 in series [1] was found to be 34.8 nM; in series [4], 25.3 nM. The IC50 at 72 h was 1940 nM in series [2] and 1360 nM in series [6]. Besides, the selectivity ratio in series [3] was 77; in series [5] it was 54.

For `Cn1cc(CN[C@H]2CC[C@@H](Nc3ncc(C(=O)NO)cn3)CC2)c2ccc(Br)cc21`, the IC50 in series [1] amounted to 19 nM; in series [4], 22.2 nM. Moreover, the IC50 at 72 h in series [2] came out at 4830 nM; in series [6], 2220 nM. Further, the results for the selectivity ratio in series [3] and in series [5] were 217 and 100, respectively.

On to `Cn1nc(CN[C@H]2CC[C@@H](Nc3ncc(C(=O)NO)cn3)CC2)c2ccccc21`, for which the IC50 turned out to be 31.2 nM in series [1] and 27.3 nM in series [4]. Moreover, the values for the IC50 at 72 h in series [2] and in series [6] were 5740 nM and 5790 nM, respectively. Besides, the values for the selectivity ratio in series [3] and in series [5] were 210 and 212, respectively.

`O=C(NO)c1cnc(N[C@H]2CC[C@@H](NCc3ccc4ccc5cccc6ccc3c4c56)CC2)nc1`: the IC50 turned out to be 28.8 nM in series [1] and 30.3 nM in series [4]. Also, the IC50 at 72 h in series [2] amounted to 2640 nM; in series [6] it was 2130 nM. In addition, the values for the selectivity ratio in series [3] and in series [5] were 87 and 70, respectively.

`O=C(NO)c1cnc(N[C@H]2CC[C@@H](NCc3ccncc3)CC2)nc1`: the results for the IC50 in series [1] and in series [4] were 186 nM and 156 nM, respectively. The IC50 at 72 h in series [2] and in series [6] was over 10000 nM in each case. Moreover, the selectivity ratio in series [3] and in series [5] was over 64 throughout.

Take `Cn1cc(CN[C@H]2CC[C@@H](Nc3ncc(C(=O)NO)cn3)CC2)c2cccnc21`: the IC50 was found to be 53.9 nM in series [1] and 47.9 nM in series [4]. The IC50 at 72 h in series [2] and in series [6] was over 10000 nM in each case. For the same compound, the selectivity ratio in series [3] and in series [5] was over 209 in each case.

Regarding `O=C(NO)c1cnc(N[C@H]2CC[C@@H](NCc3ccccn3)CC2)nc1`, the half-maximal inhibitory concentration (IC50) turned out to be 210 nM in series [1] and 138 nM in series [4]. The IC50 at 72 h in series [2] and in series [6] was over 10000 nM throughout. Also, the selectivity ratio in series [3] and in series [5] was over 72 each time.

Consider `O=C(NO)c1cnc(N[C@H]2CC[C@@H](NCc3ccc4cc(F)ccc4n3)CC2)nc1`, for which the IC50 in series [1] worked out at 15.8 nM; in series [4], 11.2 nM. Moreover, the results for the IC50 at 72 h in series [2] and in series [6] were 2380 nM and 3620 nM, respectively. The selectivity ratio was determined as 213 in series [3] and 324 in series [5].

Regarding `O=C(NO)c1cnc(N[C@H]2CC[C@@H](NCC3CCCC3)CC2)nc1`, the IC50 in series [1] amounted to 70.1 nM; in series [4] it was 100 nM. In addition, the IC50 at 72 h in series [2] amounted to 5880 nM; in series [6], 5490 nM. The selectivity ratio in series [3] was 59; in series [5], 55.

Regarding `O=C(NO)c1cnc(N[C@H]2CC[C@@H](NCc3ccc4ncccc4c3)CC2)nc1`, the results for the IC50 in series [1] and in series [4] were 47.2 nM and 44.5 nM, respectively. For the same compound, the IC50 at 72 h in series [2] was 6980 nM; in series [6], 6380 nM. Moreover, the selectivity ratio in series [3] came out at 157; in series [5] it was 143.

Consider `O=C(NO)c1cnc(N[C@H]2CC[C@@H](NCc3cnc4ccccc4c3)CC2)nc1`, for which the IC50 stood at 37.6 nM in series [1] and 27.1 nM in series [4]. Further, the values for the IC50 at 72 h in series [2] and in series [6] were 4360 nM and 3340 nM, respectively. Besides, the values for the selectivity ratio in series [3] and in series [5] were 161 and 123, respectively.

Consider `O=C(NO)c1cnc(N[C@H]2CC[C@@H](NCc3ccc4ccccc4n3)CC2)nc1`, for which the values for the IC50 in series [1] and in series [4] were 14.3 nM and 10.4 nM, respectively. Moreover, the figures for the IC50 at 72 h in series [2] and in series [6] were 2890 nM and 2430 nM, respectively. The selectivity ratio in series [3] is 278; in series [5], 233.

Regarding `Cn1cc(CN[C@H]2CC[C@@H](Nc3ncc(C(=O)NO)cn3)CC2)c2cnccc21`, the IC50 in series [1] was 51.3 nM; in series [4], 63.8 nM. Further, the IC50 at 72 h in series [2] and in series [6] was over 10000 nM in each case. Besides, the selectivity ratio in series [3] and in series [5] was over 157 in each case.

For the compound `O=C(NO)c1cnc(N[C@H]2CC[C@@H](NCc3cc4ccccc4s3)CC2)nc1`, the IC50 was 26.4 nM in series [1] and 21.8 nM in series [4]. In addition, the IC50 at 72 h in series [2] amounted to 2380 nM; in series [6] it was 1440 nM. The selectivity ratio in series [3] is 109; in series [5] it was 66.

Take `O=C(NO)c1cnc(N[C@H]2CC[C@@H](NCc3cccc4ccccc34)CC2)nc1`: the IC50 in series [1] stood at 39.5 nM; in series [4], 34.3 nM. For the same compound, the IC50 at 72 h was determined as 1530 nM in series [2] and 642 nM in series [6]. Also, the values for the selectivity ratio in series [3] and in series [5] were 47 and 19, respectively.

Consider `O=C(NO)c1cnc(N[C@H]2CC[C@@H](NCc3ccoc3)CC2)nc1`, for which the IC50 in series [1] was 106 nM; in series [4], 109 nM. Further, the IC50 at 72 h in series [2] and in series [6] was over 10000 nM each time. Besides, the selectivity ratio in series [3] and in series [5] was over 91 each time.

Regarding `O=C(NO)c1cnc(N[C@H]2CC[C@@H](NCc3ccnc4ccccc34)CC2)nc1`, the values for the IC50 in series [1] and in series [4] were 54 nM and 57 nM, respectively. Besides, the IC50 at 72 h in series [2] is over 10000 nM; in series [6] it was 7120 nM. Further, the figures for the selectivity ratio in series [3] and in series [5] were over 176 and 125, respectively.

Take `O=C(NO)c1cnc(N[C@H]2CC[C@@H](NCc3coc4ccccc34)CC2)nc1`: the IC50 came to 35.5 nM in series [1] and 50.8 nM in series [4]. The figures for the IC50 at 72 h in series [2] and in series [6] were 3110 nM and 2580 nM, respectively. The results for the selectivity ratio in series [3] and in series [5] were 61 and 51, respectively.

As to `O=C(NO)c1cnc(N[C@H]2CC[C@@H](NCc3cccnc3)CC2)nc1`, the IC50 in series [1] was 56.5 nM; in series [4], 114 nM. Also, the IC50 at 72 h in series [2] was found to be 4240 nM; in series [6], 4580 nM. Further, the results for the selectivity ratio in series [3] and in series [5] were 37 and 40, respectively.

In the case of `O=C(NO)c1cnc(N[C@H]2CC[C@@H](NCc3ccccc3)CC2)nc1`, the half-inhibitory concentration (IC50) in series [1] was 54.6 nM. The IC50 at 72 h in series [2] is 4620 nM. The selectivity ratio in series [3] turned out to be 44.
